Reference: PubChem BioAssay AID248 (DTP/NCI, 2004)
Inconclusive results and toxic doses are left out. Rule as the data show it: active = T/C of 150% or more; inactive = T/C below 125%.

Tested on: L1210 leukemia ip in BDF1 mice, survival T/C
Assay: NCI In Vivo Anticancer Drug Screen. Data for tumor model L1210 Leukemia (intraperitoneal) in B6D2F1 (BDF1) mice
Conditions: endpoint: mean survival time, higher = longer survival
In short: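 Tumor cells were implanted, animals were treated, and survival was followed. The result divides the treated measurement by the vehicle-control measurement.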

[1] = dose: 100.0 mg/kg/injection, schedule: Q01DX001 (ip), vehicle: saline
[2] = dose: 200.0 mg/kg/injection, schedule: Q01DX001 (ip), vehicle: saline
[3] = dose: 100.0 mg/kg/injection, schedule: Q01DX009 (ip), vehicle: saline with Tween-80
[4] = dose: 100.0 mg/kg/injection, schedule: Q04DX003 (ip), vehicle: saline with Tween-80
[5] = dose: 200.0 mg/kg/injection, schedule: Q01DX009 (ip), vehicle: saline with Tween-80
[6] = dose: 200.0 mg/kg/injection, schedule: Q04DX003 (ip), vehicle: saline with Tween-80
[7] = dose: 400.0 mg/kg/injection, schedule: Q01DX009 (ip), vehicle: saline with Tween-80
[8] = dose: 400.0 mg/kg/injection, schedule: Q04DX003 (ip), vehicle: saline with Tween-80
[9] = dose: 100.0 mg/kg/injection, schedule: Q04DX002 (ip), vehicle: Klucel (hydroxypropylcellulose) (HPC)
[10] = dose: 200.0 mg/kg/injection, schedule: Q04DX002 (ip), vehicle: Klucel (hydroxypropylcellulose) (HPC)
[11] = dose: 400.0 mg/kg/injection, schedule: Q04DX002 (ip), vehicle: Klucel (hydroxypropylcellulose) (HPC)

Measured: T/C

COc1cc2cc(C)[nH]c2cc1OC
inactive: dose: 50.0 mg/kg/injection, schedule: Q01DX001 (ip), vehicle: saline 101 % of control | [1] 95 % of control | [2] 98 % of control

Nc1ccccc1/C=C(\C(=O)O)c1cccc(Cl)c1
inactive: dose: 100.0 mg/kg/injection, schedule: Q04DX003 (ip), vehicle: Klucel (hydroxypropylcellulose) (HPC) 99 % of control | dose: 200.0 mg/kg/injection, schedule: Q04DX003 (ip), vehicle: Klucel (hydroxypropylcellulose) (HPC) 101 % of control | dose: 400.0 mg/kg/injection, schedule: Q04DX003 (ip), vehicle: Klucel (hydroxypropylcellulose) (HPC) 108 % of control

CC(=O)OCC(=O)[C@@]1(O)CC[C@H]2[C@@H]3CCC4=CC(=O)CC[C@]4(C)[C@H]3[C@@H](O)C[C@@]21C
inactive: dose: 1.13 mg/kg/injection, schedule: Q01DX Z (sc), vehicle: steriod suspending solution 102 % of control | dose: 2.25 mg/kg/injection, schedule: Q01DX Z (sc), vehicle: steriod suspending solution 107 % of control | dose: 4.5 mg/kg/injection, schedule: Q01DX Z (sc), vehicle: steriod suspending solution 102 % of control | dose: 9.0 mg/kg/injection, schedule: Q01DX Z (sc), vehicle: steriod suspending solution 101 % of control | dose: 25.0 mg/kg/injection, schedule: Q01DX Z (sc), vehicle: steriod suspending solution 87 % of control | dose: 50.0 mg/kg/injection, schedule: Q01DX Z (sc), vehicle: steriod suspending solution 102 % of control | [3] 105 % of control | dose: 100.0 mg/kg/injection, schedule: Q01DX Z (sc), vehicle: steriod suspending solution 106 % of control | [4] 104 % of control | [5] 104 % of control | dose: 200.0 mg/kg/injection, schedule: Q01DX009 (sc), vehicle: other 104 % of control | dose: 200.0 mg/kg/injection, schedule: Q01DX Z (sc), vehicle: steriod suspending solution 110 % of control | [6] 99 % of control | dose: 400.0 mg/kg/injection, schedule: Q01DX001 (sc), vehicle: steriod suspending solution 92 % of control | [7] 98 % of control | dose: 400.0 mg/kg/injection, schedule: Q01DX009 (sc), vehicle: other 102 % of control | [8] 100 % of control | dose: 600.0 mg/kg/injection, schedule: Q01DX009 (sc), vehicle: other 96 % of control | dose: 800.0 mg/kg/injection, schedule: Q01DX001 (sc), vehicle: steriod suspending solution 97 % of control | dose: 800.0 mg/kg/injection, schedule: Q01DX009 (sc), vehicle: other 101 % of control | dose: 1200.0 mg/kg/injection, schedule: Q01DX001 (sc), vehicle: steriod suspending solution 101 % of control | dose: 1600.0 mg/kg/injection, schedule: Q01DX001 (sc), vehicle: steriod suspending solution 100 % of control

Cc1cccc(N2CCN(P(=S)(c3ccccc3)N3CCN(c4cccc(C)c4)CC3)CC2)c1
inactive: dose: 100.0 mg/kg/injection, schedule: Q01DX001 (ip), vehicle: carboxymethylcellulose (CMC) 89 % of control | dose: 200.0 mg/kg/injection, schedule: Q01DX001 (ip), vehicle: carboxymethylcellulose (CMC) 95 % of control | dose: 400.0 mg/kg/injection, schedule: Q01DX001 (ip), vehicle: carboxymethylcellulose (CMC) 86 % of control

CN1CCC(CO)CC1
inactive: [1] 94 % of control | [2] 100 % of control

C[Si](C)(CCCOCC1CO1)O[Si](C)(C)CCCOCC1CO1 (stereo not given)
inactive: [3] 97 % of control | [4] 95 % of control | [5] 97 % of control | [6] 89 % of control | [7] 92 % of control | [8] 87 % of control

CC(=O)OCC1OC(n2cnc(C(N)=O)c2N)C(OC(C)=O)C1OC(C)=O (stereo not given)
inactive: dose: 100.0 mg/kg/injection, schedule: Q01DX005 (ip), vehicle: saline 95 % of control | dose: 200.0 mg/kg/injection, schedule: Q01DX005 (ip), vehicle: saline 96 % of control

COc1ccc(C2(OC(=O)c3ccc([N+](=O)[O-])cc3)C3C=CC2CC3)cc1 (stereo not given)
inactive: [9] 87 % of control | [10] 107 % of control | [11] 90 % of control

NC(NCCN1CC1)(C(F)(F)F)C(F)(F)F
inactive: dose: 10.0 mg/kg/injection, schedule: Q04DX003 (ip), vehicle: Klucel (hydroxypropylcellulose) (HPC) 109 % of control | dose: 20.0 mg/kg/injection, schedule: Q01DX001 (ip), vehicle: Klucel (hydroxypropylcellulose) (HPC) 105 % of control | dose: 20.0 mg/kg/injection, schedule: Q04DX003 (ip), vehicle: Klucel (hydroxypropylcellulose) (HPC) 104 % of control | dose: 40.0 mg/kg/injection, schedule: Q01DX001 (ip), vehicle: Klucel (hydroxypropylcellulose) (HPC) 101 % of control | dose: 40.0 mg/kg/injection, schedule: Q04DX003 (ip), vehicle: Klucel (hydroxypropylcellulose) (HPC) 109 % of control

CC1=CC(=Nc2ccc(N(CCCl)CCCl)cc2)C=CC1=O
inactive: dose: 50.0 mg/kg/injection, schedule: Q01DX009 (ip), vehicle: Klucel (hydroxypropylcellulose) (HPC) 110 % of control

C=C(Br)CN(C)C(C)=O
inactive: dose: 6.25 mg/kg/injection, schedule: Q01DX009 (ip), vehicle: saline 98 % of control | dose: 6.25 mg/kg/injection, schedule: Q04DX003 (ip), vehicle: saline 101 % of control | dose: 12.5 mg/kg/injection, schedule: Q01DX009 (ip), vehicle: saline 98 % of control | dose: 12.5 mg/kg/injection, schedule: Q04DX003 (ip), vehicle: saline 106 % of control | dose: 25.0 mg/kg/injection, schedule: Q01DX009 (ip), vehicle: saline 93 % of control | dose: 25.0 mg/kg/injection, schedule: Q04DX003 (ip), vehicle: saline 98 % of control

CN(C)Cc1ccccc1CO
inactive: dose: 75.0 mg/kg/injection, schedule: Q04DX002 (ip), vehicle: Klucel (hydroxypropylcellulose) (HPC) 101 % of control | dose: 150.0 mg/kg/injection, schedule: Q04DX002 (ip), vehicle: Klucel (hydroxypropylcellulose) (HPC) 90 % of control | dose: 300.0 mg/kg/injection, schedule: Q04DX002 (ip), vehicle: Klucel (hydroxypropylcellulose) (HPC) 97 % of control

CCOC(=O)CC(C(=O)OCC)C(OCC)OCC (stereo not given)
inactive: dose: 100.0 mg/kg/injection, schedule: Q04DX003 (ip), vehicle: saline 104 % of control | dose: 200.0 mg/kg/injection, schedule: Q04DX003 (ip), vehicle: saline 106 % of control | dose: 400.0 mg/kg/injection, schedule: Q04DX003 (ip), vehicle: saline 111 % of control

C#CCCCCC#[C][Hg][C]#CCCCCC#C
inactive: dose: 75.0 mg/kg/injection, schedule: Q01DX001 (ip), vehicle: saline 94 % of control

CC(C)CC(C)NCCOC(=O)c1ccc(N)cc1 (stereo not given)
inactive: dose: 9.38 mg/kg/injection, schedule: Q01DX001 (ip), vehicle: other 104 % of control | dose: 18.75 mg/kg/injection, schedule: Q01DX001 (ip), vehicle: other 96 % of control | dose: 37.5 mg/kg/injection, schedule: Q01DX001 (ip), vehicle: other 106 % of control | dose: 75.0 mg/kg/injection, schedule: Q01DX001 (ip), vehicle: carboxymethylcellulose (CMC) 96 % of control

O=C(O)c1cc(Br)cc(Br)c1Cl
inactive: [9] 108 % of control | [10] 105 % of control | [11] 97 % of control
